Experimental data published in US20220087952A1, “ANTI-APICOMPLEXAN COMPOSITIONS” (priority 2019, published 2022).

What was measured:
[1] = tested on: Eimeria arloingi oocyst extracted from goat feces; assay: In-vitro oocyst sporulation assay (Example 2); assay type: cell-based; settings: in Capra hircus, read-out: sporulation impairment (inhibition of sporulation) compared to control
Experimental: Eimeria-infected feces were collected from goats and stored at 4° C. Later, 3 grams of feces were mixed with 42 ml of tap water. The sample was homogenized and passed through a mesh, after which the filtered liquid was collected into 50 ml tubes. The liquid was then washed three times with cold tap water and centrifuged (1,700 G, 5 minutes, 20° C.). In each wash, the supernatant was carefully removed and approximately 30 to 40 ml of cold water was added. After the last wash, the water was removed and replaced with saturated sugar flotation solution (500 gr sucrose in 320 ml double distilled water), wherein each tube was filled with up to 45 ml of the sugar flotation solution. Each tube was centrifuged twice, wherein after each round of centrifugation, the ring-shaped phase formed on the top of the sugar solution was collected (about 1-2 ml collected after each round) and preserved in a 50 ml plastic tube.
The plastic tube was filled with cold water and centrifuged again. Oocysts were found in the sediment after centrifugation. The water was gently removed and the concentration of the oocysts was evaluated. The oocysts were then stored at 4° C. until use (the use of unsporulated oocysts that are older than two weeks was avoided). It is noted that a 2% potassium dichromate solution may be used for conservation. The unsporulated oocytes were washed in cold phosphate buffered saline (PBS, X10) before use in order to remove potassium dichromate (if used). The concentration of the oocysts was adjusted to approximately 30,000/ml.
Extract was prepared according to Example 1 above. Extract can be mixed with Phosphate buffer saline (PBS, X1, w:w, 1:10) if not perfectly soluble in water.
Each assay was in triplicates for each concentration of extract and gallic acid purchased at Sigma. In addition, six concentrations of gallic acid (50, 150, 250, 350, 450, 550 ppm) were added to 2000 and 4000 ppm of the invention extract to check synergism of gallic acid and the extract on impairment of sporulation. […]

[2] = tested on: Eimeria spp. (Paracox 5 at twenty-fold dose); assay: Eimeria-infected chicks given supplemented drinking water (Example 5); assay type: in vivo; settings: for Body weight of chicks (Means ± SE) / Average daily gain / Oocyst counts in droppings: C uninfected, T infected, AS % antisolvent, GA ppm gallic acid in water
Experimental: 160 chicks allotted to 8 treatments, encompassing two groups of uninfected birds and six groups of Eimeria-infected birds, were tested. Birds were administered water treatment from 7 days of age and infected when 10-days old.
Inoculation was individually, per os, by using a dose of Paracox 5, a live attenuated anticoccidial vaccine including administered at the twenty-fold the recommended dose (Table 2), in a volume of 1 ml, when chicks were 10 days old. Uninfected birds were given the same volume of saline. Eimeria spp were as in Table 2.
(§1) Water was supplied in 3-liter poultry troughs that were re-filled when needed. Tap water was initially given and water supplementation was initiated three days after chicks' arrival. Water treatments for the uninfected (C) birds were no antisolvent and no gallic acid (C_AS0%_GA0) and 1% antisolvent with 500 ppm of gallic acid (C_AS1%_GA500).
(§2) Water treatments for the infected (T) birds were bi-factorial with 3 levels of antisolvent (AS; 0, 0.5, and 1%) and two levels of gallic acid (GA; 0 and 500 ppm) resulting in 6 groups: […], T_AS0.5%_GA0, T_AS1%_GA0, T_AS0.5%_GA0, T_AS0.5% _GA500, and T_AS1%_GA500.
(§3) Birds were wing-tagged and weighed on infection day and then, 7 days after infection. Half of the birds were weighed and humanely euthanized by exposure to CO2 on day 14 after infection and the second half on day 17 after infection. Water intake was recorded. Droppings were collected from a 1 m^2 paper sheet placed in each group 12 h before each weighing and kept at 4° C. until oocysts were counted under a grated microscope at ×100 and ×400 at days 0, and 7.
No existing method, based on mono-species Eimeria infection, was satisfactory. The duodenum was examined at three sites (proximal, medial, distal) and a separate score was recorded for each. In contrast, only one score was recorded for the ileum-jejunum, and one for the caeca. Organ scores were termed D (average of 3 sites along the duodenum), J, and C. Three composite scores were established: a. sum of the average duodenal score, the jejunal score and the caecal score; b. sum of the maximal duodenal, jejunal and caecal scores; c. number of lesion-affected organs (1-3).
Data for body weight (BW) and average daily gain was log-transformed in order to homogenize variances. The C_AS0%_GA0 and […] in order to assess the effect of infection. The C_AS0%_GA0 and the C_AS1%_GA500 were compared to evaluate possible toxicity due to water treatment. All groups encompassing bi-factorial levels of AS and GA were compared by bi-factorial ANOVA.
For the analysis of lesions, for each treatment and slaughter day, the Wilcoxon Rank Sum Test was run. Then, using the Iman-Connover method, a rank transformation was done on original data and a two-way ANOVA was run on the ranked data. The treatment x day interaction was significant for J. Sum DJC, and #organs affected and Pairwise comparisons were made by Tukey test.

[3] = Water intake and toxicity of supplemented drinking water in chicks (Example 5); assay type: in vivo
From the text: as §1, §2, §3
Data for body weight (BW) and average daily gain was log-transformed in order to homogenize variances. The C_AS0%_GA0 and […] in order to assess the effect of infection. The C_AS0%_GA0 and the C_AS1%_GA500 were compared to evaluate possible toxicity due to water treatment. […]

[4] = tested on: Eimeria spp. (Paracox 5 at twenty-fold dose); assay: Eimeria-infected chicks given supplemented drinking water (Example 5); assay type: in vivo; settings: d 14 relative to infection day; C uninfected, T infected; AS % antisolvent, GA ppm gallic acid in water

SMILES | inhibition at 50 µg/mL [1] | Body weight of chicks (Means ± SE) ([2]; D 17 relative to infection day) | Average daily gain ([2]; Days 0-7) | Average daily gain ([2]; Days 8-14) | Average daily gain ([2]; Days 14-17) | Body weight of chicks (Means ± SE) ([2]; d 0 relative to infection day) | Oocyst counts in droppings ([2]; d 0 relative to infection day) | Body weight of chicks (Means ± SE) ([2]; d 7 relative to infection day) | Oocyst counts in droppings ([2]; d 7 relative to infection day) | Body weight of chicks (Means ± SE) ([2]; d 14 relative to infection day) | growth performance / body weight of Eimeria-infected birds, in words ([2]; water treatment from 7 days of age, infection at 10 days, dose in label) | Water intake ([3]; code: C uninfected, T infected, AS % antisolvent (0.5% = 5,000 ppm, 1% = 10,000 ppm), GA ppm gallic acid in water) | signs of toxicity ([3]; in vivo) | Oocyst counts in droppings [4]
O=C(O)c1cc(O)c(O)c(O)c1 [Gallic acid, gallic acid] | 25% | 1290.0 ± 83.4 ab | 32.9 ± 1.4 g/day | 53.2 ± 2.5 g/day | 99.9 ± 6.2 g/day | 168.9 ± 4.3 | 0 gr^−1 | 399.5 ± 13.4 a | 10,650 gr^−1 | 984.4 ± 40.1 ab | no advantage in adding gallic acid if an AS treatment was given | 132 ml chick^−1 dr^−1 | No signs of toxicity whatsoever | 3,600 gr^−1
O=C(O)/C=C/c1ccc(O)c(O)c1 [caffeic acid, Caffeic acid] | 43% | – | – | – | – | – | – | – | – | – | – | – | – | –
COc1cc(C(=O)O)ccc1O [vanillic acid] | 23% | – | – | – | – | – | – | – | – | – | – | – | – | –
